Test results reported in PubChem BioAssay AID1745844 (Carcinogenic Potency Database (CPDB), 2022).
Calls of active or inactive are those of the source. How the calls were made is not given here.

Tested on: rodent lifetime carcinogenesis bioassay, tumor incidence TD50
Assay: carcinogenic potency in animals, long-term in vivo studies, CPDB compilation (AID 1745844)
[1] = rat, strain Charles River CD (Sprague-Dawley), females, in feed, site: mesovarium, lesion: leiomyoma, dosed 104 weeks, study length 104 weeks

[CH3][Hg][Cl]
TD50 (mouse, strain B6C3F1, females, in feed, site: kidney, lesion: renal-cell adenoma, dosed 104 weeks, study length 104 weeks): 65.8 mg/kg/day | TD50 (mouse, strain B6C3F1, males, in feed, site: kidney, lesion: renal-cell adenoma, dosed 104 weeks, study length 104 weeks): 9.83 mg/kg/day | TD50 (mouse, strain B6C3F1, males, in feed, site: kidney, lesion: renal-cell carcinoma, dosed 104 weeks, study length 104 weeks): 4.28 mg/kg/day | TD50 (mouse, strain B6C3F1, males, in feed, site: kidney, lesion: several types, types named in the paper, dosed 104 weeks, study length 104 weeks): 3.19 mg/kg/day | carcinogen call (mouse, strain Charles River CD1, females, in drinking water, site: any site (literature study), lesion: malignant tumor, dosed 143 weeks, study length 151 weeks): negative (inactive) | TD50 (mouse, strain Charles River CD1, females, in drinking water, site: any site (literature study), lesion: several types, types named in the paper, dosed 143 weeks, study length 151 weeks): 2.13 mg/kg/day (inactive) | carcinogen call (mouse, strain Charles River CD1, females, in drinking water, site: lung, lesion: one or several types, types not named, dosed 143 weeks, study length 151 weeks): negative (inactive) | TD50 (mouse, strain Charles River CD1, males, in drinking water, site: any site (literature study), lesion: malignant tumor, dosed 135 weeks, study length 159 weeks): 9.64 mg/kg/day (inactive) | TD50 (mouse, strain Charles River CD1, males, in drinking water, site: any site (literature study), lesion: several types, types named in the paper, dosed 135 weeks, study length 159 weeks): 5.63 mg/kg/day (inactive) | carcinogen call (mouse, strain Charles River CD1, males, in drinking water, site: lung, lesion: one or several types, types not named, dosed 135 weeks, study length 159 weeks): negative (inactive) | carcinogen call (mouse, strain ICR, females, in feed, site: kidney, lesion: adenoma, dosed 80 weeks, study length 80 weeks): negative (inactive) | carcinogen call (mouse, strain ICR, females, in feed, site: kidney, lesion: one or several types, types not named, dosed 52 weeks, study length 52 weeks): negative (inactive) | carcinogen call (mouse, strain ICR, females, in feed, site: kidney, lesion: one or several types, types not named, dosed 78 weeks, study length 78 weeks): negative (inactive) | carcinogen call (mouse, strain ICR, females, in feed, site: kidney, lesion: one or several types, types not named, dosed 104 weeks, study length 104 weeks): negative (inactive) | TD50 (mouse, strain ICR, females, in feed, site: liver, lesion: hemangioma, dosed 80 weeks, study length 80 weeks): 26.1 mg/kg/day (inactive) | carcinogen call (mouse, strain ICR, females, in feed, site: liver, lesion: hepatocellular adenoma, dosed 80 weeks, study length 80 weeks): negative (inactive) | carcinogen call (mouse, strain ICR, females, in feed, site: liver, lesion: hepatocellular carcinoma, dosed 80 weeks, study length 80 weeks): negative (inactive) | TD50 (mouse, strain ICR, females, in feed, site: lung, lesion: adenocarcinoma, dosed 80 weeks, study length 80 weeks): 11.6 mg/kg/day (inactive) | carcinogen call (mouse, strain ICR, females, in feed, site: lung, lesion: adenoma, dosed 80 weeks, study length 80 weeks): negative (inactive) | TD50 (mouse, strain ICR, males, in feed, site: kidney, lesion: adenocarcinoma, dosed 78 weeks, study length 78 weeks): 3.2 mg/kg/day | TD50 (mouse, strain ICR, males, in feed, site: kidney, lesion: adenocarcinoma, dosed 80 weeks, study length 80 weeks): 1.48 mg/kg/day | TD50 (mouse, strain ICR, males, in feed, site: kidney, lesion: adenocarcinoma, dosed 102 weeks, study length 104 weeks): 1.88 mg/kg/day | TD50 (mouse, strain ICR, males, in feed, site: kidney, lesion: adenoma, dosed 80 weeks, study length 80 weeks): 24.1 mg/kg/day | TD50 (mouse, strain ICR, males, in feed, site: kidney, lesion: several types, types named in the paper, dosed 78 weeks, study length 78 weeks): 0.896 mg/kg/day | TD50 (mouse, strain ICR, males, in feed, site: kidney, lesion: several types, types named in the paper, dosed 80 weeks, study length 80 weeks): 1.36 mg/kg/day | TD50 (mouse, strain ICR, males, in feed, site: kidney, lesion: several types, types named in the paper, dosed 102 weeks, study length 104 weeks): 1.69 mg/kg/day | TD50 (mouse, strain ICR, males, in feed, site: lung, lesion: adenocarcinoma, dosed 80 weeks, study length 80 weeks): 5.1 mg/kg/day | TD50 (rat, strain Sprague-Dawley, females, in feed, site: kidney, lesion: adenoma, dosed 130 weeks, study length 130 weeks): 15.7 mg/kg/day (inactive) | carcinogen call (rat, strain Sprague-Dawley, females, in feed, site: liver, lesion: one or several types, types not named, dosed 52 weeks, study length 52 weeks): negative (inactive) | carcinogen call (rat, strain Sprague-Dawley, females, in feed, site: liver, lesion: one or several types, types not named, dosed 78 weeks, study length 78 weeks): negative (inactive) | carcinogen call (rat, strain Sprague-Dawley, females, in feed, site: liver, lesion: one or several types, types not named, dosed 130 weeks, study length 130 weeks): negative (inactive) | carcinogen call (rat, strain Sprague-Dawley, males, in feed, site: liver, lesion: one or several types, types not named, dosed 52 weeks, study length 52 weeks): negative (inactive) | carcinogen call (rat, strain Sprague-Dawley, males, in feed, site: liver, lesion: one or several types, types not named, dosed 78 weeks, study length 78 weeks): negative (inactive) | carcinogen call (rat, strain Sprague-Dawley, males, in feed, site: liver, lesion: one or several types, types not named, dosed 130 weeks, study length 130 weeks): negative (inactive) | carcinogen call (rat, strain Wistar, females, in feed, site: liver, lesion: one or several types, types not named, dosed 104 weeks, study length 104 weeks): negative (inactive) | carcinogen call (rat, strain Wistar, males, in feed, site: liver, lesion: one or several types, types not named, dosed 104 weeks, study length 104 weeks): negative (inactive)

CC(C)(C)NCC(O)c1ccc(O)c(CO)c1 (stereo unspecified)
TD50 (rat, strain Charles River CD (Sprague-Dawley), females, in feed, site: mesovarium, lesion: leiomyoma, dosed 80 weeks, study length 80 weeks): 36.3 mg/kg/day | TD50 [1]: 44.6 mg/kg/day

CC(C)(Oc1ccc(C2CCCc3ccccc32)cc1)C(=O)O (stereo unspecified)
carcinogen call (hamster, strain Syrian, MB strain, males, in feed, site: liver, lesion: several types, types named in the paper, dosed 60 weeks, study length 60 weeks): negative (inactive) | TD50 (rat, strain Fischer 344, males, in feed, site: liver, lesion: hepatocellular carcinoma, dosed 108 weeks, study length 108 weeks): 22.4 mg/kg/day | TD50 (rat, strain Fischer 344, males, in feed, site: pancreas, lesion: acinar-cell adenoma, dosed 108 weeks, study length 108 weeks): 207 mg/kg/day | TD50 (rat, strain Fischer 344, males, in feed, site: pancreas, lesion: acinar-cell carcinoma, dosed 108 weeks, study length 108 weeks): 428 mg/kg/day | TD50 (rat, strain Fischer 344, males, in feed, site: pancreas, lesion: several types, types named in the paper, dosed 108 weeks, study length 108 weeks): 132 mg/kg/day | TD50 (rat, strain Sprague-Dawley, males, in feed, site: liver, lesion: several types, types named in the paper, dosed 60 weeks, study length 60 weeks): 3.51 mg/kg/day | TD50 (rat, strain Wistar, females, in feed, site: liver, lesion: hepatocellular adenoma, dosed 70 weeks, study length 70 weeks): 55.5 mg/kg/day | TD50 (rat, strain Wistar, females, in feed, site: liver, lesion: hepatocellular carcinoma, dosed 55 weeks, study length 55 weeks): 163 mg/kg/day | TD50 (rat, strain Wistar, females, in feed, site: liver, lesion: hepatocellular carcinoma, dosed 70 weeks, study length 70 weeks): 92.3 mg/kg/day | TD50 (rat, strain Wistar, females, in feed, site: liver, lesion: several types, types named in the paper, dosed 55 weeks, study length 55 weeks): 163 mg/kg/day | TD50 (rat, strain Wistar, females, in feed, site: liver, lesion: several types, types named in the paper, dosed 70 weeks, study length 70 weeks): 36.6 mg/kg/day | TD50 (rat, strain Wistar, males, in feed, site: any site (literature study), lesion: one or several types, types not named, dosed 59 weeks, study length 59 weeks): 12.3 mg/kg/day | TD50 (rat, strain Wistar, males, in feed, site: liver, lesion: hepatocellular adenoma, dosed 57 weeks, study length 57 weeks): 38.8 mg/kg/day | TD50 (rat, strain Wistar, males, in feed, site: liver, lesion: hepatocellular adenoma, dosed 59 weeks, study length 59 weeks): 48 mg/kg/day | TD50 (rat, strain Wistar, males, in feed, site: liver, lesion: hepatocellular carcinoma, dosed 57 weeks, study length 57 weeks): 59.1 mg/kg/day | TD50 (rat, strain Wistar, males, in feed, site: liver, lesion: hepatocellular carcinoma, dosed 59 weeks, study length 59 weeks): 58.1 mg/kg/day | TD50 (rat, strain Wistar, males, in feed, site: liver, lesion: several types, types named in the paper, dosed 57 weeks, study length 57 weeks): 19.8 mg/kg/day | TD50 (rat, strain Wistar, males, in feed, site: liver, lesion: several types, types named in the paper, dosed 59 weeks, study length 59 weeks): 22.1 mg/kg/day

CC(C)(C)NCC(O)c1cc(O)cc(O)c1 (stereo unspecified)
TD50 [1]: 410 mg/kg/day

O=NN1CCCC1c1cccnc1 (stereo unspecified)
TD50 (hamster, strain Syrian Golden, females, in drinking water, site: respiratory system, lesion: papilloma, dosed 31 weeks, study length 96 weeks): 11.5 mg/kg/day | TD50 (hamster, strain Syrian Golden, males, in drinking water, site: liver, lesion: angiosarcoma, dosed 31 weeks, study length 96 weeks): 34.4 mg/kg/day | TD50 (hamster, strain Syrian Golden, males, in drinking water, site: respiratory system, lesion: papilloma, dosed 31 weeks, study length 96 weeks): 10.1 mg/kg/day

c1ccc2[nH]ccc2c1
carcinogen call (mouse, strain Swiss albino, females, in feed, site: urinary bladder, lesion: carcinoma, dosed 70 weeks, study length 70 weeks): negative (inactive)
